Patent US9108957B2 (MITSUBISHI TANABE PHARMA CORPORATION, priority 2009, dated 2015)

biological target: human recombinant TPK1 (Homo sapiens, UniProt P49841); test: Inhibitory activity against P-GS1 phosphorylation by TPK1 (Kinase Glo luminescence); format: biochemical; details: 7.5 μM P-GS1, 10 μM ATP, 25° C. for 16 hours, Kinase Glo Reagent luminescent signal
Protocol: Inhibitory Activity of the Medicament of the Present Invention Against P-GS1 Phosphorylation by Bovine Cerebral TPK1
A mixture containing 100 mM HEPES-sodium hydroxide (pH 7.2), 1 mM magnesium acetate, 1 mM EGTA, 1 mM dithiothreitol (DTT), 0.02% Tween 20, 7.5 μM P-GS1, 10 μM ATP, human recombinant TPK1 and a compound shown in Table (a final mixture contained 1% DMSO deriving from a solution of a test compound prepared in the presence of 10% DMSO) was used as a reaction system. The phosphorylation was started by adding ATP, and the reaction was conducted at 25° C. for 16 hours. Then equal volume of Kinase Glo Reagent (Promega) was added to the mixture and luminescent signal from the mixture was measured. IC50 for each compound was calculated by setting the data of mixture without enzyme as 0% activity and that without compound as 100% activity.

human recombinant TPK1, sequence (P49841 whole entry): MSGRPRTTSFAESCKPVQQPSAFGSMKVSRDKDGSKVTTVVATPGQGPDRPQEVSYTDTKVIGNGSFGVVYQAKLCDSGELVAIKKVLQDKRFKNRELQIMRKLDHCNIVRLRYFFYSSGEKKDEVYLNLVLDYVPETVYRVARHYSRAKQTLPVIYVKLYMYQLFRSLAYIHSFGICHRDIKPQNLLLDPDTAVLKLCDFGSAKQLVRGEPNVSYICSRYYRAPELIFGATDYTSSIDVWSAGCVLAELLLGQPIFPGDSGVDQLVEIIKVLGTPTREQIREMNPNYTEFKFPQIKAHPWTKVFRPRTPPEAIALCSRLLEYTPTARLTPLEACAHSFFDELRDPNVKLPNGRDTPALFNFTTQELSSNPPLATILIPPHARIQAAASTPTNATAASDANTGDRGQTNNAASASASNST

Structure (SMILES)	IC50 [µM]
Cc1nc(-c2ccc(C3CCN(c4nc(-c5ccncc5F)cc(=O)n4C)CCO3)cc2)no1 (single isomer, unassigned; (-)) [Compound A097, (−)-2-[7-[4-(5-methyl-1,2,4-oxadiazol-3-yl)-phenyl]-1,4-oxazepan-4-yl]-6-(3-fluoropyridin-4-yl)-3-methylpyrimidin-4(3H)-one]	0.0113
Cc1nc(-c2ccc(C3CCN(c4nc(-c5ccncn5)cc(=O)n4C)CCO3)cc2)no1 (single isomer, unassigned; (+)) [Compound A100, (+)-2-[7-[4-(5-methyl-1,2,4-oxadiazol-3-yl)-phenyl]-1,4-oxazepan-4-yl]-3-methyl-6-(pyrimidin-4-yl)pyrimidin-4(3H)-one]	0.015
Cn1c(N2CCCO[C@H](c3cccc(C#N)c3)C2)nc(-c2ccncc2F)cc1=O [Compound A047]	0.0675
COc1ccc(C2CCN(c3nc(-c4ccncc4F)cc(=O)n3C)CCO2)cc1 (centres unmarked) [Compound A095, 2-[7-(4-methoxyphenyl)-1,4-oxazepan-4-yl]-6-(3-fluoropyridin-4-yl)-3-methylpyrimidin-4(3H)-one]	0.0107
CC1CN(c2nc(-c3ccncc3)cc(=O)n2C)CCCO1 (centres unmarked) [Compound A061, 2-(2-methyl-1,4-oxazepan-4-yl)-3-methyl-6-(pyridin-4-yl)pyrimidin-4(3H)-one]	0.446
Cn1c(N2CCOC(c3ccc(F)cc3)CC2)nc(-c2ccncc2F)cc1=O (centres unmarked) [Compound A108, 2-[7-(4-fluorophenyl)-1,4-oxazepan-4-yl]-6-(3-fluoropyridin-4-yl)-3-methylpyrimidin-4(3H)-one]	0.0246
Cn1c(N2CCOC(c3ccc(F)cc3)CC2)nc(-c2ccncc2)cc1=O (centres unmarked) [Compound A123, 2-[7-(4-fluorophenyl)-1,4-oxazepan-4-yl]-3-methyl-6-(pyridin-4-yl)pyrimidin-4(3H)-one]	0.153
CC1COCCN(c2nc(-c3ccncc3F)cc(=O)n2C)C1 (centres unmarked) [Compound A084, 2-(6-methyl-1,4-oxazepan-4-yl)-6-(3-fluoropyridin-4-yl)-3-methylpyrimidin-4(3H)-one]	0.015
Cc1noc(-c2ccc(C3CCN(c4nc(-c5ccncc5F)cc(=O)n4C)CCO3)cc2)n1 (single isomer, unassigned; (+)) [Compound A090, (+)-2-[7-[4-(3-methyl-1,2,4-oxadiazol-5-yl)-phenyl]-1,4-oxazepan-4-yl]-6-(3-fluoropyridin-4-yl)-3-methylpyrimidin-4(3H)-one]	0.0061

The next lines start with the values.

IC50 [µM]	Structure (SMILES)
0.0295	Cn1c(N2CCOC(c3ccc(-c4ncon4)cc3)CC2)nc(-c2ccncn2)cc1=O (single isomer, unassigned; (-)) [Compound A111, (−)-2-[7-[4-(1,2,4-oxadiazol-3-yl)-phenyl]-1,4-oxazepan-4-yl]-3-methyl-6-(pyrimidin-4-yl)pyrimidin-4(3H)-one]
0.0235	Cc1nc(-c2ccc(C3CN(c4nc(-c5ccncn5)cc(=O)n4C)CCCO3)cc2)no1 (stereo in doubt) [Compound A034, (R)-2-[2-[4-(5-methyl-1,2,4-oxadiazol-3-yl)-phenyl]-1,4-oxazepan-4-yl]-3-methyl-6-(pyrimidin-4-yl)pyrimidin-4(3H)-one]
0.0014	Cn1c(N2CCOCC(c3ccccc3)C2)nc(-c2ccncn2)cc1=O (single isomer, unassigned; (-)) [Compound A075, (−)-2-(6-phenyl-1,4-oxazepan-4-yl)-3-methyl-6-(pyrimidin-4-yl)pyrimidin-4(3H)-one]
0.0108	Cn1c(N2CCOC(c3ccc(Br)cc3)CC2)nc(-c2ccncn2)cc1=O (single isomer, unassigned; (+)) [Compound A096, (+)-2-[7-(4-bromophenyl)-1,4-oxazepan-4-yl]-3-methyl-6-(pyrimidin-4-yl)pyrimidin-4(3H)-one]
0.0147	Cn1c(N2CCOC(c3ccc(-c4ncon4)cc3)CC2)nc(-c2ccncn2)cc1=O (single isomer, unassigned; (+)) [Compound A099, (+)-2-[7-[4-(1,2,4-oxadiazol-3-yl)-phenyl]-1,4-oxazepan-4-yl]-3-methyl-6-(pyrimidin-4-yl)pyrimidin-4(3H)-one]
